Assay results as given in ChEMBL document CHEMBL1143065, “Discovery and characterization of 4'-(2-furyl)-N-pyridin-3-yl-4,5'-bipyrimidin-2'-amine (LAS38096), a potent, selective, and efficacious A2B adenosine receptor antagonist” (J Med Chem, 2007).
Blank lines part the entries; values can stand above or below the compound they belong to.

How the values were obtained:
Adenosine receptor A3 = target: T1, Adenosine receptor A3 (Homo sapiens, UniProt P0DMS8); assay: Displacement of […] from human A3 receptor expressed in HeLa cells; assay type: cell-based
T1 sequence (P0DMS8 whole entry): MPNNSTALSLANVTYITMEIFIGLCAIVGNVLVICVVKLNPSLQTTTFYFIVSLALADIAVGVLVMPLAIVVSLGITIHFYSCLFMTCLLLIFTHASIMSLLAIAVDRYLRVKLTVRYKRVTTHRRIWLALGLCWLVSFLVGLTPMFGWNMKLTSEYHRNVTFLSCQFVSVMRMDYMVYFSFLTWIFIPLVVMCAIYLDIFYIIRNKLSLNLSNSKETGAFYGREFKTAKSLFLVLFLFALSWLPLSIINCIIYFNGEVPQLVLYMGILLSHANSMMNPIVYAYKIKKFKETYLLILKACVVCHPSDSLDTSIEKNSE

Adenosine receptor A2a [1] = target: T2, Adenosine receptor A2a (Homo sapiens, UniProt P29274); assay: Displacement of [3H]ZM-241385 from human A2A receptor expressed in HeLa cells; assay type: cell-based
T2 sequence (P29274 whole entry): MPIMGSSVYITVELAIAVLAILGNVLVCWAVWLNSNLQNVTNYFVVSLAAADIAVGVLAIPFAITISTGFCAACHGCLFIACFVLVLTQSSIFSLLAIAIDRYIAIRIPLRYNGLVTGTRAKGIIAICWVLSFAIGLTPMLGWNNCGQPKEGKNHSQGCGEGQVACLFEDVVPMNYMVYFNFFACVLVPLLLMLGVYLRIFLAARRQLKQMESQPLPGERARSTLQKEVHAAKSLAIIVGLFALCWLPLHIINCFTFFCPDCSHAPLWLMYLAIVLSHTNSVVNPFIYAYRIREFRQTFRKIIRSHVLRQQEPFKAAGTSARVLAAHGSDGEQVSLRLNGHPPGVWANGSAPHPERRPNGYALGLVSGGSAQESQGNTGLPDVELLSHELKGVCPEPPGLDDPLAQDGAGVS

[2] = target: T3, Adenosine receptor A3 (Homo sapiens) (UniProt P0DMS8); assay: Displacement of […] from human A3 receptor expressed in HeLa cells at 1000 nM; assay type: cell-based
T3 sequence (whole entry): T1 sequence (P0DMS8 whole entry)

Adenosine receptor A2b [3] = target: T4, Adenosine receptor A2b (Homo sapiens, UniProt P29275); assay: Displacement of [3H]DPCPX from human A2B receptor expressed in HEK293 cells; assay type: cell-based
T4 sequence (P29275 whole entry): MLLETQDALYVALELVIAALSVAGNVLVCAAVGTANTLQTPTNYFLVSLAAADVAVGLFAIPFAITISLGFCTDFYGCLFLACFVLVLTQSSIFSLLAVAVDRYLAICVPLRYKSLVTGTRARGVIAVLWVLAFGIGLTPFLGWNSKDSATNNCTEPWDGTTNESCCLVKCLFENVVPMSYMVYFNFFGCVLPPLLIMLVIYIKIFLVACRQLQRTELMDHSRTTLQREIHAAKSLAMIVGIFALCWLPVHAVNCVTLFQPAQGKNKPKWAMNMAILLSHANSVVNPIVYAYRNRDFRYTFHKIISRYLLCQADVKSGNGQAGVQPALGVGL

[4] = target: T5, Adenosine receptor A1 (Homo sapiens) (UniProt P30542); assay: Displacement of [3H]DPCPX from human A1 receptor expressed in CHO cells at 10000 nM; assay type: cell-based
T5 sequence (whole entry): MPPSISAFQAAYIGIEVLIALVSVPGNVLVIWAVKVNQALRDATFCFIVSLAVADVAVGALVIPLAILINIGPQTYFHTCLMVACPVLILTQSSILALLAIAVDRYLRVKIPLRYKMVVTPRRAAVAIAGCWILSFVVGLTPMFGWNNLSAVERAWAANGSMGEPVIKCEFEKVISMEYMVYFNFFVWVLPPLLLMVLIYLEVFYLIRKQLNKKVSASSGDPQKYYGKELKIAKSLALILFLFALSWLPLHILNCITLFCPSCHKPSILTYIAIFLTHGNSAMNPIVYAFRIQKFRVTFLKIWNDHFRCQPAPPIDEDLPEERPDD

Adenosine receptor A2a [5] = target: T2, Adenosine receptor A2a; assay: Displacement of [3H]ZM-241385 from human A2A receptor expressed in HeLa cells at 2500 nM; assay type: cell-based
Adenosine receptor A1 = target: T6, Adenosine receptor A1 (Homo sapiens, UniProt P30542); assay: Displacement of [3H]DPCPX from human A1 receptor expressed in CHO cells; assay type: cell-based
T6 sequence (P30542 whole entry): T5 sequence (whole entry)

[6] = Volume of distribution at steady state in Beagle dog at 1 mg/kg, iv; assay type: ADME, organism-based, Canis lupus familiaris; design: dose 1 mg/kg, route intravenous; settings: in vivo, read-out: Vdss
Adenosine receptor A2b [7] = target: T4, Adenosine receptor A2b; assay: Activity at human A2B receptor expressed in HEK293 cells assessed as inhibition of NECA-induced intracellular cAMP levels by ELISA; assay type: functional, cell-based
[8] = Cmax in Swiss mouse at 10 mg/kg, po; assay type: ADME, organism-based; design: dose 10 mg/kg, route oral; settings: in vivo
[9] = Tmax in Swiss mouse at 10 mg/kg, po; assay type: ADME, organism-based; design: dose 10 mg/kg, route oral; settings: in vivo
[10] = Tmax in Wistar rat at 10 mg/kg, po; assay type: ADME, organism-based; design: dose 10 mg/kg, route oral; settings: in vivo
[11] = Mean residence time in Wistar rat at 1 mg/kg, iv; assay type: ADME, organism-based; design: dose 1 mg/kg, route intravenous; settings: in vivo
[12] = target: Adenosine receptor A3 (Mus musculus) (UniProt Q61618); settings: CHO, 10 uM
Sequence of Adenosine receptor A3 (Mus musculus) (Q61618 whole entry, looked up): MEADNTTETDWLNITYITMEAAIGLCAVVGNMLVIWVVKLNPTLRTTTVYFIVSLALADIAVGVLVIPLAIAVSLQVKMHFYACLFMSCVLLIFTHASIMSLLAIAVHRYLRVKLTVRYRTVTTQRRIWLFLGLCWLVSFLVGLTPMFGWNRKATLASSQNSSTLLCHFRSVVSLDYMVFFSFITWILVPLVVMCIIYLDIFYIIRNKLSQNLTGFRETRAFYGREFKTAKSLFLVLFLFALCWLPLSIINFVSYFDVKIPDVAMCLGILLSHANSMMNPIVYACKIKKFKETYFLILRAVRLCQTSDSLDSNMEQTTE
Description: Activity at mouse A3 receptor expressed in CHO cells assessed as inhibition of NECA-induced intracellular cAMP levels at 10 uM by ELISA

[13] = Volume of distribution at steady state in Wistar rat at 1 mg/kg, iv; assay type: ADME, organism-based; design: dose 1 mg/kg, route intravenous; settings: in vivo, read-out: Vdss
[14] = AUC in Beagle dog at 10 mg/kg, po; assay type: ADME, organism-based, Canis lupus familiaris; design: dose 10 mg/kg, route oral; settings: plasma
[15] = Bioavailability in Beagle dog at 10 mg/kg, po; assay type: ADME, organism-based, Canis lupus familiaris; settings: in vivo
Adenosine receptor A2b [16] = target: T7, Adenosine receptor A2b (Mus musculus, UniProt Q60614); assay: Inhibition of NECA-induced IL6 production in Swiss mouse fibroblasts after 24 hrs by ELISA; assay type: functional
T7 sequence (Q60614 whole entry): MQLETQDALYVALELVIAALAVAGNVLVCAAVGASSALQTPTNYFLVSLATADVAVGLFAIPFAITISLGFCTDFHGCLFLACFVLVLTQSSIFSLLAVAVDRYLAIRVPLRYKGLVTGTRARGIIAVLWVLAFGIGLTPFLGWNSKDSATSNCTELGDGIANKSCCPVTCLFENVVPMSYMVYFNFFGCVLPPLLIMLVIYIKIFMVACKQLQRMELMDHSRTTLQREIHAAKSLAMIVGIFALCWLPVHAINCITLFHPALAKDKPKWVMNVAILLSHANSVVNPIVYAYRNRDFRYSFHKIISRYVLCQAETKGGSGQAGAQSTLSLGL

[17] = target: T5, Adenosine receptor A1 (Homo sapiens); assay: Displacement of [3H]DPCPX from human A1 receptor expressed in CHO cells at 1000 nM; assay type: cell-based
[18] = Mean residence time in Beagle dog at 1 mg/kg, iv; assay type: ADME, organism-based, Canis lupus familiaris; design: dose 1 mg/kg, route intravenous; settings: in vivo
[19] = Clearance in Beagle dog at 1 mg/kg, iv; assay type: ADME, organism-based, Canis lupus familiaris; design: dose 1 mg/kg, route intravenous; settings: in vivo
[20] = Mean residence time in Beagle dog at 10 mg/kg, po; assay type: ADME, organism-based, Canis lupus familiaris; design: dose 10 mg/kg, route oral; settings: in vivo
Adenosine receptor A2b [21] = target: T7, Adenosine receptor A2b; assay: Activity at mouse A2B receptor expressed in CHO cells assessed as inhibition of NECA-induced intracellular cAMP levels by ELISA; assay type: functional, cell-based
[22] = Half life in Beagle dog at 1 mg/kg, iv; assay type: ADME, organism-based, Canis lupus familiaris; design: dose 1 mg/kg, route intravenous; settings: in vivo
[23] = AUC in Wistar rat at 10 mg/kg, po; assay type: ADME, organism-based; design: dose 10 mg/kg, route oral; settings: plasma
[24] = Mean residence time in Wistar rat at 10 mg/kg, po; assay type: ADME, organism-based; design: dose 10 mg/kg, route oral; settings: in vivo
[25] = Cmax in Beagle dog at 10 mg/kg, po; assay type: ADME, organism-based, Canis lupus familiaris; design: dose 10 mg/kg, route oral; settings: in vivo
[26] = Tmax in Beagle dog at 10 mg/kg, po; assay type: ADME, organism-based, Canis lupus familiaris; design: dose 10 mg/kg, route oral; settings: in vivo
[27] = Bioavailability in Wistar rat at 10 mg/kg, po; assay type: ADME, organism-based; settings: in vivo
[28] = Half life in Wistar rat at 1 mg/kg, iv; assay type: ADME, organism-based; design: dose 1 mg/kg, route intravenous; settings: in vivo
Rattus norvegicus = assay: Clearance in Wistar rat at 1 mg/kg, iv; assay type: ADME, organism-based; design: dose 1 mg/kg, route intravenous; settings: in vivo
[29] = Cmax in Wistar rat at 10 mg/kg, po; assay type: ADME, organism-based; design: dose 10 mg/kg, route oral; settings: in vivo
[30] = target: T8, Adenosine receptors; A2b & A3 (Homo sapiens, UniProt P29275+P0DMS8); assay: Inhibition of NECA-induced IL6 production in human fibroblast after 24 hrs by ELISA; assay type: functional
T8 sequence (P29275 whole entry): T4 sequence (P29275 whole entry)
T8 sequence (P0DMS8 whole entry): T1 sequence (P0DMS8 whole entry)

[31] = AUC in Swiss mouse at 10 mg/kg, po; assay type: ADME, organism-based; design: dose 10 mg/kg, route oral; settings: plasma

SMILES: [O-][n+]1cccc(Nc2ncc(-c3ccncn3)c(-c3ccco3)n2)c1
Ki (Adenosine receptor A3): > 1000 nM
Ki (Adenosine receptor A2a [1]): > 2500 nM
inhibition [2]: 35%
Ki (Adenosine receptor A2b [3]): 34 nM
inhibition [4]: 38%
inhibition (Adenosine receptor A2a [5]): 24%
Ki (Adenosine receptor A1): > 10000 nM

SMILES: O=c1ccc(Nc2ncc(-c3ccncn3)c(-c3ccco3)n2)c[nH]1
Ki (Adenosine receptor A3): > 1000 nM
Ki (Adenosine receptor A2a [1]): > 2500 nM
inhibition [2]: 15%
Ki (Adenosine receptor A2b [3]): 16 nM
inhibition [4]: 31%
inhibition (Adenosine receptor A2a [5]): 25%
Ki (Adenosine receptor A1): > 10000 nM

SMILES: Cn1cc(Nc2ncc(-c3ccncn3)c(-c3ccco3)n2)ccc1=O
Ki (Adenosine receptor A3): > 1000 nM
Ki (Adenosine receptor A2a [1]): > 2500 nM
inhibition [2]: 28%
Ki (Adenosine receptor A2b [3]): 28 nM
inhibition [4]: 17%
inhibition (Adenosine receptor A2a [5]): 20%
Ki (Adenosine receptor A1): > 10000 nM

SMILES: c1coc(-c2nc(Nc3cncnc3)ncc2-c2ccncn2)c1
Ki (Adenosine receptor A3): > 1000 nM
Ki (Adenosine receptor A2a [1]): > 2500 nM
inhibition [2]: 42%
Ki (Adenosine receptor A2b [3]): 24 nM
inhibition (Adenosine receptor A2a [5]): 29%
IC50 (Adenosine receptor A1): 45 nM
Ki (Adenosine receptor A1): > 10000 nM

SMILES: c1cncc(Nc2ncc(-c3ccncn3)c(-c3ccco3)n2)c1
Vd [6]: 1.1 L/kg
Ki (Adenosine receptor A3): > 1000 nM
IC50 (Adenosine receptor A2b [7]): 321 nM
Cmax [8]: 13 µM
Tmax [9]: 18 min
Tmax [10]: 18 min
MRT [11]: 18 min
inhibition [12]: 5%
Vd [13]: 0.5 L/kg
AUC [14]: 15 µM·h
bioavailability [15]: 81%
IC50 (Adenosine receptor A2b [16]): 640 nM
Ki (Adenosine receptor A2a [1]): > 2500 nM
inhibition [17]: 14%
inhibition [2]: 36%
Ki (Adenosine receptor A2b [3]): 17 nM
MRT [18]: 42 min
clearance [19]: 28 mL/min/kg
MRT [20]: 108 min
IC50 (Adenosine receptor A2b [21]): 349 nM
inhibition (Adenosine receptor A2a [5]): 40%
half-life [22]: 48 min
AUC [23]: 16 µM·h
MRT [24]: 84 min
Cmax [25]: 6 µM
Tmax [26]: 78 min
bioavailability [27]: 75%
Ki (Adenosine receptor A1): > 1000 nM
half-life [28]: 12 min
clearance (Rattus norvegicus): 25 mL/min/kg
Cmax [29]: 11 µM
IC50 [30]: 340 nM
AUC [31]: 4 µM·h

The next lines start with the values.

Ki (Adenosine receptor A3): > 1000 nM
Ki (Adenosine receptor A2a [1]): > 2500 nM
inhibition [2]: 29%
Ki (Adenosine receptor A2b [3]): 119 nM
inhibition [4]: 28%
inhibition (Adenosine receptor A2a [5]): 38.5%
Ki (Adenosine receptor A1): > 10000 nM
SMILES: O=c1ccc(Nc2ncc(-c3ccncn3)c(-c3ccco3)n2)cn1CC1CC1

Ki (Adenosine receptor A3): > 1000 nM
Ki (Adenosine receptor A2a [1]): > 2500 nM
inhibition [2]: 29%
Ki (Adenosine receptor A2b [3]): 115 nM
inhibition [4]: 25%
inhibition (Adenosine receptor A2a [5]): 21%
Ki (Adenosine receptor A1): > 10000 nM
SMILES: COc1ccc(Nc2ncc(-c3ccncn3)c(-c3ccco3)n2)cn1

Ki (Adenosine receptor A3): > 1000 nM
Ki (Adenosine receptor A2a [1]): > 2500 nM
inhibition [2]: 32%
Ki (Adenosine receptor A2b [3]): 39 nM
inhibition [4]: 45%
inhibition (Adenosine receptor A2a [5]): 25%
Ki (Adenosine receptor A1): > 10000 nM
SMILES: COc1ncc(Nc2ncc(-c3ccncn3)c(-c3ccco3)n2)cn1

Ki (Adenosine receptor A3): > 1000 nM
Ki (Adenosine receptor A2a [1]): > 2500 nM
inhibition [2]: 18%
Ki (Adenosine receptor A2b [3]): 116 nM
inhibition [4]: 30%
inhibition (Adenosine receptor A2a [5]): 21%
Ki (Adenosine receptor A1): > 10000 nM
SMILES: c1coc(-c2nc(Nc3cnccn3)ncc2-c2ccncn2)c1

Ki (Adenosine receptor A3): > 1000 nM
Ki (Adenosine receptor A2a [1]): > 2500 nM
inhibition [2]: 24%
Ki (Adenosine receptor A2b [3]): 69 nM
inhibition [4]: 22%
inhibition (Adenosine receptor A2a [5]): 37%
Ki (Adenosine receptor A1): > 10000 nM
SMILES: N#Cc1cncc(Nc2ncc(-c3ccncn3)c(-c3ccco3)n2)c1
